From patent US20260069571A1, “DDR1 AND DDR2 INHIBITORS FOR THE TREATEMENT OF CANCER AND FIBROTIC DISEASES” (REDX PHARMA PLC, priority 2021, published 2026) come the findings set out here.

For one experiment, the target named is Recombinant human DDR2 (Homo sapiens (Human), UniProt Q16832). The experiment can be described thus: LanthaScreen Eu Kinase Binding Assay, DDR2. The settings on record: DDR2 1.75 nM (aa427-855, GST tag), Kinase Tracer 178 10 nM; for IC50: read-out: DDR2 pIC50 (converted). The protocol: (§1) DDR1 and DDR2 Biochemical Assay Method
Chain of Recombinant human DDR2 (Q16832 427-855): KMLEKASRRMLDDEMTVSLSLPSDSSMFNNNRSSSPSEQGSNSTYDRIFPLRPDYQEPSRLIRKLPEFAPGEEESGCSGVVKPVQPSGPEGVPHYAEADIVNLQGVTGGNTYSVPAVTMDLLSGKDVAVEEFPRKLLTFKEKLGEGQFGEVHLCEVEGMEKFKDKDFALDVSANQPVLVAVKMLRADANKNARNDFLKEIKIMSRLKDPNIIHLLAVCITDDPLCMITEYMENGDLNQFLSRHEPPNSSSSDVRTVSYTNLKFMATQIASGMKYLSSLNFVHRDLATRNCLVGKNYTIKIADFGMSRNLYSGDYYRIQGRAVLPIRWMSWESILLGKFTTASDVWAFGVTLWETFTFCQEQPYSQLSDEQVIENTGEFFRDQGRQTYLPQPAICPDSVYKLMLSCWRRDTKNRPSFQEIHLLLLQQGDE
(§2) The capacity of compounds to bind to DDR1 and DDR2 was quantified using a LanthaScreen Eu Kinase Binding Assay. Recombinant human DDR1 (2.5 nM; aa440-876 containing a GST tag) and DDR2 (1.75 nM; aa427-855 containing a GST tag) were diluted in assay buffer (50 mM HEPES pH7.3, 10 mM MgCl2, 1 mM EGTA and 0.01% Tween) with various concentrations of compound in a 384-well plate and a volume of 5 uL. After a 30-minute incubation at room temperature, 2.5 uL of Eu-anti GST antibody (diluted to 1 nM in assay buffer) plus Kinase Tracer 178 (diluted in assay buffer to 5 nM for DDR1 and 10 nM for DDR2) were added to the plate. Following 60-minute incubation at room temperature, time-resolved fluorescence was measured on a BMG Labtech PHERAstar plate reader. DMSO (1%) and reference compound (1 μM) were used to generate the Max and Min assay signals, respectively. Data was analysed using a four-parameter logistic model to calculate IC50 values, with at least two independent replicates were performed for each compound.

Another experiment deals with Recombinant human DDR1 (Homo sapiens (Human), UniProt Q08345). The experiment is described as follows: LanthaScreen Eu Kinase Binding Assay, DDR1. Conditions: DDR1 2.5 nM (aa440-876, GST tag), Kinase Tracer 178 5 nM; for IC50: read-out: DDR1 pIC50 (converted). The protocol: as §1, §2
Chain of Recombinant human DDR1 (Q08345 other isoform, or with tags, fused parts or gaps): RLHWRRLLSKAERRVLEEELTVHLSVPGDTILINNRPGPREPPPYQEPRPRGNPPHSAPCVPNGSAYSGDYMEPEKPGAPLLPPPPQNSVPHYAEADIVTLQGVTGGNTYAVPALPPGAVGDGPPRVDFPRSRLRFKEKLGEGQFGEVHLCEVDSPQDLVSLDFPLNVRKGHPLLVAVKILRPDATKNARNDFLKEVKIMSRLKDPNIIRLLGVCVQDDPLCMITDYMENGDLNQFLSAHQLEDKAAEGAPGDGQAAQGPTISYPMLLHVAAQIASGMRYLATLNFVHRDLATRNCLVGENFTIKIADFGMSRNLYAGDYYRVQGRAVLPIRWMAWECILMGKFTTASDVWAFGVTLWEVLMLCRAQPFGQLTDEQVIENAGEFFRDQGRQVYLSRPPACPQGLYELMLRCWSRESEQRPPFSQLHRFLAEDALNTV

Molecules are shown by their SMILES. A value given as a limit tells only on which side of the number the result lay.

`Cn1ncc2cc(Nc3cccc4c3C(=O)N(CC(=O)N3CCC[C@H]3C(F)(F)F)C4)cnc21` [Example 51, 7-[(1-methylpyrazolo[3,4-b]pyridin-5-yl)amino]-2-[2-oxo-2-[(2S)-2-(trifluoromethyl)pyrrolidin-1-yl]ethyl]isoindolin-1-one]: the “DDR2 pIC50” value at Recombinant human DDR2 is on record as “A (pIC50>8)”. For the same compound, the “DDR1 pIC50” value at Recombinant human DDR1 is “A (pIC50>8)”.
On to `Cn1ncc2cc(Nc3cccc4c3C(=O)N(CC(=O)N3CCC[C@H]3C(F)(F)F)C4)ccc21` [Example 3, 7-[(1-Methylindazol-5-yl)amino]-2-[2-oxo-2-[(2S)-2-(trifluoromethyl)pyrrolidin-1-yl]ethyl]isoindolin-1-one], for which the IC50 on Recombinant human DDR2 and on Recombinant human DDR1 was under 0.01 µM in each case.
As for `O=C(CN1Cc2cccc(Nc3ccc4cn[nH]c4c3)c2C1=O)NCC(F)(F)F` [Example 81, 2-[7-(1H-indazol-6-ylamino)-1-oxo-isoindolin-2-yl]-N-(2,2,2-trifluoroethyl)acetamide], the figures for the IC50 at Recombinant human DDR2 and on Recombinant human DDR1 were 0.1 to 1 µM and 0.01 to 0.1 µM, respectively.
The matching figures for `O=C(CN1Cc2cccc(Nc3cnc4[nH]ncc4c3)c2C1=O)NC1CC1(F)F` (stereo not shown) [Example 75, N-(2,2-difluorocyclopropyl)-2-[1-oxo-7-(1H-pyrazolo[3,4-b]pyridin-5-ylamino)isoindolin-2-yl]acetamide]: 0.1 to 1 µM and 0.01 to 0.1 µM.
The matching figures for `Cn1ncc2cc(Nc3cccc4c3C(=O)N(CC(=O)N3CCOC[C@@H]3C(F)(F)F)C4)cnc21` [Example 57, 7-[(1-methylpyrazolo[3,4-b]pyridin-5-yl)amino]-2-[2-oxo-2-[(3R)-(trifluoromethyl)morpholin-4-yl]ethyl]isoindolin-1-one]: at least 1 µM and at least 1 µM.
The matching figures for `Cc1n[nH]c2cc(Nc3cccc4c3C(=O)N(CC(=O)N3CCC[C@H]3C(F)(F)F)C4)cc(F)c12` [Example 64, 7-[(4-fluoro-3-methyl-1H-indazol-6-yl)amino]-2-[2-oxo-2-[(2S)-(trifluoromethyl)pyrrolidin-1-yl]ethyl]isoindolin-1-one]: under 0.01 µM and under 0.01 µM.
For the compound `Cn1ncc2cc(Nc3cccc4c3C(=O)N(CC(=O)N3CCOC(C(F)(F)F)C3)C4)ccc21` (stereo not shown) [Example 26, 7-[(1-methylindazol-5-yl)amino]-2-[2-oxo-2-[2-(trifluoromethyl)morpholin-4-yl]ethyl]isoindolin-1-one], the IC50 at Recombinant human DDR2 and at Recombinant human DDR1 was 0.01 to 0.1 µM each time.
As to `Cn1ncc2cc(Nc3cccc4c3C(=O)N(CC(=O)N3CCOC[C@@H]3C(F)(F)F)C4)ccc21` [Example 45, 7-[(1-methylindazol-5-yl)amino]-2-[2-oxo-2-[(3R)-(trifluoromethyl)morpholin-4-yl]ethyl]isoindolin-1-one], the IC50 on Recombinant human DDR2 was 0.01 to 0.1 µM; on Recombinant human DDR1, under 0.01 µM.
Regarding `Cn1ncc2cc(Nc3cccc4c3C(=O)N(CC(=O)NCC(F)(F)F)C4(C)C)ccc21` [Example 7, 2-[1,1-dimethyl-4-[(1-methylindazol-5-yl)amino]-3-oxo-isoindolin-2-yl]-N-(2,2,2-trifluoroethyl)acetamide], the “DDR2 pIC50” value at Recombinant human DDR2 was “D (pIC50≤6)”. Moreover, the IC50 at Recombinant human DDR1 was 0.1 to 1 µM.
Consider `Cn1ncc2cc(Nc3cccc4c3C(=O)N(CC(=O)Nc3cccc(C(C)(C)N)c3)C4)ccc21` [Example 23, N-[3-(1-amino-1-methyl-ethyl)phenyl]-2-[7-[(1-methylindazol-5-yl)amino]-1-oxo-isoindolin-2-yl]acetamide], for which the IC50 on Recombinant human DDR2 and at Recombinant human DDR1 was 0.01 to 0.1 µM in each case.
Turning to `Cc1n[nH]c2cc(Nc3cccc4c3C(=O)N(CC(=O)NCC(F)(F)F)C4)cc(Cl)c12` [Example 91, 2-[7-[(4-chloro-3-methyl-1H-indazol-6-yl)amino]-1-oxo-isoindolin-2-yl]-N-(2,2,2-trifluoroethyl)acetamide], on Recombinant human DDR1, the IC50 was 0.01 to 0.1 µM.
For the compound `Cn1ncc2cc(Nc3cccc4c3C(=O)N(CC(=O)N3CCCC(C(F)(F)F)C3)C4)ccc21` (stereo not shown) [Example 12], the IC50 at Recombinant human DDR2 is 0.01 to 0.1 µM.
